Consider one molecule from patent publication US20130317055A1, “NEURONAL NICOTINIC AGONIST AND METHODS OF USE” (ABBVIE INC., priority 2012, published 2013).

What all share (format): in vivo, human
For data set [1], the system named is clinically stable subjects with schizophrenia. Kind of data set: Clinical Study A (Phase 2a, placebo-controlled): MATRICS Consensus Cognitive Battery (MCCB). As to conditions: Phase 2a study; printed indication AD.
Data set [2] has the same test system. Kind of data set: Clinical Study A: UCSD Performance-Based Skills Assessment-2 (UPSA-2). The conditions noted are these: for UPSA-2 Total Score: Difference from Placebo LS Mean (SE) of Difference / UPSA-2 Total Score: LS Mean (SE) of Change: Baseline to Final Evaluation, ANCOVA; for UPSA-2 Total Score: Observed Mean (SD) Final: Final Evaluation. An excerpt:
(§1) A Phase 2a proof-of-concept (POC) study in clinically stable subjects with schizophrenia who were clinically stable and received stable doses of atypical antipsychotic therapy. The study was a Phase 2, multi-center, randomized, double-blind, placebo-controlled, parallel group study designed to evaluate the safety and efficacy of doses of (4s)-4-(5-phenyl-1,3,4-thiadiazol-2-yloxy)-1-azatricyclo[3.3.1.1^3,7]decane (Compound A) in clinically stable male and female subjects (ages 20 to 55, inclusive) with a Diagnostic and Statistical Manual of Mental Disorders Fourth Edition, Text Revision (DSM-IV-TR) diagnosis of schizophrenia. Psychiatric diagnoses were confirmed using the Mini-International Neuropsychiatric Interview (MINI) version 6.0.0. The criteria for clinical stability was determined by a combination of retrospective data (over the 4 months prior to the start of Screening, which will be supported by clinical records, patient, identified responsible contact person, and physician interviews), and prospective data assessed during the Prospective Stabilization Period of 28 to 42 days duration.
(§2) The study was a Phase 2, multi-center, randomized, double-blind, placebo-controlled, parallel group study designed to evaluate the safety and efficacy of doses of (4s)-4-(5-phenyl-1,3,4-thiadiazol-2-yloxy)-1-azatrieyclo[3.3.1.1^3,7]decane, which is also recognized as Compound A, in treating cognitive deficits in subjects with schizophrenia who were clinically stable and receiving one or two atypical antipsychotic medications. Study drug was administered orally.
(§3) The study consisted of a screening period of at least 28 and up to 42 days, a 84-day outpatient treatment period, a 14-day post-treatment period, and a post-treatment follow-up period. The screening period consisted of three visits: Screening Visit 1, Screening Visit 2, and Day −1. Upon completion of Day −1 procedures, eligible subjects were randomized through an Interactive Voice Response/Interactive Web-Based (IVR/IWB) system. Subjects were randomized in an equal ratio to one of three treatment groups (placebo, 10 mg Compound A, or 25 mg Compound A).
(§4) Subjects were randomized in a 1:1:1 ratio with placebo, 10 mg QD Compound A, of 25 mg Compound A. Each subject was instructed to take study drug once-daily in the morning for 12 weeks. Each daily dose was preferably taken with food. The subject and investigator were blinded to the treatment assignment throughout the study. The treatment assignments for the study subjects are shown below in Table 1.
The primary endpoint was the MCCB composite score, and the primary endpoint analysis was the change on the MCCB composite score from baseline to endpoint versus placebo. Other secondary measures included the MCCB domains, the NSA-16, the CANTAB cognition battery (measured at different time points from the MCCB), and the UPSA-2. The Positive and Negative Syndrome Scale (PANSS) was included to document stability in schizophrenia symptomatology.
The UCSD Performance-Based Skills Assesstnent-2 (UPSA-2) is a role-play test designed for subjects with schizophrenia to evaluate cognitive functional capacity in six selected domains of basic living skills. These areas include Organization/Planning Financial Skills, Communication, Transportation, Household Management, and Medication Management. […] Scores were obtained for each subtest, and the total score was the sum of these subtests. […] The UPSA-2 required an average of 30 minutes to administer. The UPSA-2 was administered in on Days 14, 28, 56, 84 and 98.

The test system is the same in data set [3]. Kind of data set: Clinical Study A: CANTAB cognition battery. The conditions noted are these: 10 mg and 25 mg.
Description: as §1, with “Psychiatric diagnoses were confirmed using the Mini-International Neuropsychiatric Interview (MINI) version 6.0.0.” left out, “duration. […]” for “duration.”
The primary endpoint was the MCCB composite score, and the primary endpoint analysis was the change on the MCCB composite score from baseline to endpoint versus placebo. Other secondary measures included the MCCB domains, the NSA-16, the CANTAB cognition battery (measured at different time points from the MCCB), and the UPSA-2. […]

Data set [4] shares this test system. The data set can be described thus: Clinical Study A: disposition of subjects, discontinuations and tolerability.
Description: as §1, §2, §3, §4
Subjects completed 2 visits during the screening period. Study site personnel contacted each subject by telephone on Day 21, 35, and 70 of the 84-day treatment period to discuss study drug compliance, antipsychotic medication compliance, concomitant medication use, substance use, and any adverse events.
A total of 207 subjects were randomized.

Turning to `c1ccc(-c2nnc(O[C@@H]3C4CC5C[C@H]3C[N@](C5)C4)s2)cc1` [Compound A, (4s)-4-(5-phenyl-1,3,4-thiadiazol-2-yloxy)-1-azatricyclo[3.3.1.1^3,7]decane], in data set [1], the “Signal for efficacy in symptomatic treatment” value was “demonstrated a signal for efficacy”. Further, the “UPSA-2 Total Score: Difference from Placebo LS Mean (SE) of Difference” value in data set [2] (10 mg QD) is 0.51 (2.15); in data set [2] (25 mg QD) it was 0.63 (2.34). For the same molecule, the figures for the “UPSA-2 Total Score: LS Mean (SE) of Change” value in data set [2] (10 mg QD) and in data set [2] (25 mg QD) were 2.78 (1.52) and 2.89 (1.70), respectively. Further, the results for the “UPSA-2 Total Score: Observed Mean (SD) Final” value in data set [2] (10 mg QD) and in data set [2] (25 mg QD) were 87.98 (20.36) and 94.29 (15.85), respectively. The “UPSA-2 composite score: significance versus placebo” value in data set [2] (either dose group (10 mg, 25 mg)) is given as “No significance”. Also, in data set [3], the “CANTAB battery results relative to MCCB results” value is “consistent”. Also, the “Discontinuation, primary reason Adverse event, % of treated subjects” value in data set [4] (10 mg QD) is listed as “(5.8) %”; in data set [4] (25 mg QD), “(4.5) %”; in data set [4] (Compound A Overall) it was “(5.1) %”. The Tolerability entry in data set [4] (human patients with schizophrenia, summary statement) is given as “generally well tolerated”; in data set [4] (subjects with schizophrenia, doses up to 25 mg QD, including 10 mg QD and 25 mg QD), “well tolerated”.
